Biological target: Leucine-rich repeat serine/threonine-protein kinase 2 (Homo sapiens, UniProt Q5S007)
Assay: Inhibition of recombinant human LRRK2 using LRRKtide peptide and ATP as substrates incubated for 1 hrs by ADP-glo luminescent assay

Sequence of Leucine-rich repeat serine/threonine-protein kinase 2 (Q5S007 whole entry): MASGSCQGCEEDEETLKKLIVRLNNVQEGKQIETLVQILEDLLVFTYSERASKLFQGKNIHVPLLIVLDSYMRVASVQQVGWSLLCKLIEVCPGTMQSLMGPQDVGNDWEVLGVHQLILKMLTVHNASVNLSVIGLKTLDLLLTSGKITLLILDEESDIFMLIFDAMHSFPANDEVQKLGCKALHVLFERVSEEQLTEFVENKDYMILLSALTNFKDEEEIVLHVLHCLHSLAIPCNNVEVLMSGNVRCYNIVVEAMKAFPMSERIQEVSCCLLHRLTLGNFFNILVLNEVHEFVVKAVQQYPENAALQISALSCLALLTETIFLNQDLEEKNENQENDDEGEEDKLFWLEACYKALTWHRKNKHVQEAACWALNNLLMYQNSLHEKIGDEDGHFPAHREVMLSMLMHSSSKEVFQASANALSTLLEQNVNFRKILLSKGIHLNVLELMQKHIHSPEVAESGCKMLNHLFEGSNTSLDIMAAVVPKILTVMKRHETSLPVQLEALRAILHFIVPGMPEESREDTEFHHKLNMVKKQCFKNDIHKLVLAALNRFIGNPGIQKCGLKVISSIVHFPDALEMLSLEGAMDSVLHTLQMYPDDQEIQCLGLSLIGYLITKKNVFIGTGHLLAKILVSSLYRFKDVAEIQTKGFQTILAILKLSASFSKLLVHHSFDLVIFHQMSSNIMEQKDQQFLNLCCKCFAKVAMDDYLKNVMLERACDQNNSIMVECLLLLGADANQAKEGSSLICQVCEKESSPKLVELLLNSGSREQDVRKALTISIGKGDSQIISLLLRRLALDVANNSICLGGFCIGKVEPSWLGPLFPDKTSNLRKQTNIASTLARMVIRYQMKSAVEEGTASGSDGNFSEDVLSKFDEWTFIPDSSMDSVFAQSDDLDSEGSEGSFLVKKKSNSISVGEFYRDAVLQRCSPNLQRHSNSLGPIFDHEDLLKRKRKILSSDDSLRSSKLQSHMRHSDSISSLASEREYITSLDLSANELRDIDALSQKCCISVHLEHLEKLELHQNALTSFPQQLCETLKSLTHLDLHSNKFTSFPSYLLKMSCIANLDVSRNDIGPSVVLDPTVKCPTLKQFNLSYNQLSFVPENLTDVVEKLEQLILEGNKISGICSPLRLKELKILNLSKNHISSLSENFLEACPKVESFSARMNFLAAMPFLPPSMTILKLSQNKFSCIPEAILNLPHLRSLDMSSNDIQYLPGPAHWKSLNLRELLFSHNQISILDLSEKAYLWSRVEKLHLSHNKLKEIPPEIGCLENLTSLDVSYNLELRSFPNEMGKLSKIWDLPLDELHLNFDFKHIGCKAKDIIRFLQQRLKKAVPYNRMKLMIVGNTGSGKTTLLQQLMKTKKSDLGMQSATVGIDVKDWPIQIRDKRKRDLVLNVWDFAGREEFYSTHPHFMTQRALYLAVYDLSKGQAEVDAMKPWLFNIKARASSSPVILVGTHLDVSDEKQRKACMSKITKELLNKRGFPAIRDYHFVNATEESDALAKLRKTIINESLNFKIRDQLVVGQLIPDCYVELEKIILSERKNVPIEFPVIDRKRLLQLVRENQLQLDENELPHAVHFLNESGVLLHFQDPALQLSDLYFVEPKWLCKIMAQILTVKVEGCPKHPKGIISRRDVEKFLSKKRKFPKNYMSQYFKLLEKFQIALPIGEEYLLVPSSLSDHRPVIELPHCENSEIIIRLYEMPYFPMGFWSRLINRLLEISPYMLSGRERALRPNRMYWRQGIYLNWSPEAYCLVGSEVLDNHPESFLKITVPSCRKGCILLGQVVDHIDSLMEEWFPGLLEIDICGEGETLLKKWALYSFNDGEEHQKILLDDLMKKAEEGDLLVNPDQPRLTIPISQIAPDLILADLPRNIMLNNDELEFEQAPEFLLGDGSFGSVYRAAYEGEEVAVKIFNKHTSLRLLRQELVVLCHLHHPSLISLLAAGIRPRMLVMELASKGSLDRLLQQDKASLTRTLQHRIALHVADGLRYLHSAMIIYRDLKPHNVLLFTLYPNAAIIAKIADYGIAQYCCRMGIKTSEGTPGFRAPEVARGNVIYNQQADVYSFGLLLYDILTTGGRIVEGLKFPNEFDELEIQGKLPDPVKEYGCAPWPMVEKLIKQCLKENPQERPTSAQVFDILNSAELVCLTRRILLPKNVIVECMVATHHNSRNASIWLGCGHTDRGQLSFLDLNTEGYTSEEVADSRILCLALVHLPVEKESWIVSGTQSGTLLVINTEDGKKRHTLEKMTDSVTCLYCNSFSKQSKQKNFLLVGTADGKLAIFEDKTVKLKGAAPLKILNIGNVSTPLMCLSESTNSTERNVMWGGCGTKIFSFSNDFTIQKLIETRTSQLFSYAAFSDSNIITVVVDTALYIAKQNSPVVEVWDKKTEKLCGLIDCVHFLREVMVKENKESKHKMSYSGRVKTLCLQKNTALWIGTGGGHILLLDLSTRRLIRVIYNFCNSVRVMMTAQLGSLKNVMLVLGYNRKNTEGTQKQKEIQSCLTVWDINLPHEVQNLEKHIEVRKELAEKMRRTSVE

SMILES | IC50
O=C1NCCCOc2ccc3[nH]nc(c3c2)-c2cc(cc(N3CCN(C4COC4)CC3)c2)CO1 | < 0.01 µM
O=C1NCCCOc2ccc3[nH]nc(c3c2)-c2cc(cc(N3CCC(N4CCOCC4)CC3)c2)CO1 | < 0.01 µM
O=C1NCCCOc2ccc3[nH]nc(c3c2)-c2ccc(C3CC3)c(c2)CO1 | < 0.01 µM
O=C1NCCCOc2ccc3[nH]nc(c3c2)-c2cc(cc(N3CCC4(COC4)C3)c2)CO1 | < 0.01 µM
O=C1NCCCOc2ccc3[nH]nc(c3c2)-c2csc(n2)CCO1 | < 0.01 µM
O=C1NCCCOc2ccc3[nH]nc(c3c2)-c2cc(cc(N3CCC(N4CCCC4)CC3)c2)CO1 | < 0.01 µM

From ChEMBL document CHEMBL5029192, “Novel Macrocyclic LRRK2 Inhibitors for Treating Parkinson's Disease” (ACS Med Chem Lett, 2022)
